Data set [1] can be described thus: Determining the dissolution rate using the true dissolution method (Sirius inForm, pressed disks). The data set is classed as physicochemical. As to conditions: for dissolution rate: true dissolution disks d = 3 mm, 40 ml acetate-phosphate buffer pH 6.8, 100 rpm, UV/Vis; for times more soluble than crystalline form 2 of lesinurad free acid: ratio of dissolution rates measured under identical conditions. On the procedure: The dissolution rate was measured using a Sirius inForm dissolution device. Disks for true dissolution with the surface area available for dissolution of 0.071 cm^2 (d = 0.3 cm) were prepared using a Specac press. The pressing time was 2x2 minutes at the pressing pressure of 100 kg. The dissolution was carried out in 40 ml of a solution at pH 6.8 (38 ml of 150mM NaCl + 2 ml of 150mM NaCl, 100mM CH3COONa, 100mM NaH2PO4), at the constant speed of 100 rpm. Samples were drawn at 5-second intervals and the concentration of dissolved lesinurad was determined by means of an integrated UV/Vis spectrophotometric probe in the wavelength range of 230-400 nm. Disks for measuring true dissolution (d = 3 mm) were produced from the prepared solid forms of lesinurad, i.e. free acid form 2 (reference form), tromethamine salt form I and diethylamine salt, and solid form of lesinurad with urea (form I), with the use of a press. The dissolution was carried out in 40 ml of an acetate-phosphate buffer at pH 6,8 (150mM NaCl, 5mM CH3COONa, 5mM NaH2PO4), at the constant stirring speed of 100 rpm. Samples were drawn at 5-second intervals and the concentration of dissolved lesinurad was determined by means of a UV/Vis spectrophotometer.

Data set [2] can be described thus: Chemical and polymorphic stability test of the crystalline form. Type of data set: physicochemical. On the procedure: The prepared crystalline form I was subjected to tests from the point of view of chemical and polymorphic stability. […] The same results were also obtained after 3 days at 80°C.

As for `O=C(O)CSc1nnc(Br)n1-c1ccc(C2CC2)c2ccccc12` [lesinurad free acid (form 2), 2-(5-bromo-4-(1-cyclopropylnaphtalen-4-yl)-4H-1,2,4-triazol-3-ylthio)acetic acid, reference compound], the dissolution rate in data set [1] and in data set [1] (listed as crystalline form 2 of lesinurad free acid) was 0.42 mg/min/cm^2 each time.

Consider `O=C(O)CSc1nnc(Br)n1-c1ccc(C2CC2)c2ccccc12` [lesinurad with diethylamine], for which, in data set [1] (listed as salt with diethylamine), the “times more soluble than crystalline form 2 of lesinurad free acid” value is on record as about 50 times. In addition, the dissolution rate in data set [1] and in data set [1] (listed as lesinurad with dimethylamine) was 21.58 mg/min/cm^2 in each case.

In the case of `O=C(O)CSc1nnc(Br)n1-c1ccc(C2CC2)c2ccccc12` [lesinurad with tromethamine (form I)], the “chemical and polymorphic stability” value in data set [2] (after 3 months at 40°C / 75% humidity) was “did not show any signs of chemical degradation or transition to a different polymorphic form”; in data set [2] (after 3 days at 80°C), “same results”. Besides, the “times more soluble than crystalline form 2 of lesinurad free acid” value in data set [1] (listed as solid form of lesinurad with tromethamine) is on record as “about 17 times”. For the same compound, the dissolution rate in data set [1] and in data set [1] (listed as lesinurad with tromethamine) was 7.44 mg/min/cm^2 throughout.

The values above are taken from patent EP3372592A1, “SOLID FORMS OF LESINURAD AMINE SALTS” (Zentiva, k.s., priority 2017, dated 2018).
